Converted amounts (≈) assume the structure as drawn. Read-outs that look alike come from different tables or passages of the source.
Columns and labels:
[1] = molecular target: T1, C. albicans RNA polymerase II (Candida albicans, UniProt A0A1D8PUA6+Q5A8Y5); assay: biochemical; conditions: for inhibition at 20 µM: screening of azo library; for IC50: read-out: IC50 Candida pol II
T1 construct: RNA elongation assay on calf thymus DNA
Description: (§1) The following procedure is used for cell-free high-throughput screening. A Tomtec Quadra 96-well pipetting station is used to add the reaction components to polypropylene 96-well dishes. 5 μl aliquots of test compounds dissolved in DMSO (or DMSO alone as a control) are added to wells. This is followed by 20 μl of the RNA polymerase II mixture, which consists of: 10 mM DTT, 200 mM KCl, 10 mM Mn^+2, 1.5 μM bovine serum albumin, and 0.25 μg reconstituted RNA polymerase. After allowing the test compound to interact with the RNA polymerase, 25 μl of the DNA/NTP mixture is added, containing: 1 μg calf thymus DNA, 4 μM [α-^32 P]-UTP, and 400 μM each CTP, ATP, and GTP.
(§2) After incubation for 60 min at 30 C, the reaction is stopped by addition of 50 μl 15% trichloroacetic acid (TCA). The TCA-precipitated RNA is adsorbed onto double-thick glass fiber filtermats using a Tomtec cell harvester. The wells of the microtiter plate and the filter are washed twice with 5% TCA and bound radioactivity is determined using a Wallac microbeta 1450 scintillation counter.
(§3) Inhibitory activity due to the test compound is calculated according to the formula: [formula] where cpmpositive control represents the average of the cpm in wells that received DMSO alone, and cpmsample represents the cpm in the well that received test compound. Compounds that cause at least 50% inhibition are scored as positive "hits" in this assay.
(§4) DNA-directed RNA polymerase II from Candida albicans was purified in sufficient quantity to support high throughput screening of large synthetic chemical and natural product libraries. A biochemical mechanism-based screen for detecting inhibitors of Pol II was developed and implemented. The screen is outlined in FIGS. 4A and 4B.

human Pol II = molecular target: T2, human Pol II (Homo sapiens, UniProt P24928+P30876); assay: RNA polymerase II counterscreen, human pol II; type: biochemical
T2 construct: Pol II was isolated from Aspergillus nidulans, Saccharomyces cerevisiae, and human cells; endogenous in cells; enzyme isolated from them
Description: Pol II was isolated from Aspergillus nidulans, Saccharomyces cerevisiae, and human cells (FIG. 5) and used in secondary screens for fungal spectrum and specificity. Pol I and Pol III were isolated from Candida albicans and used as an additional mechanism to study specificity. Confirmed hits form the primary assay and were evaluated against this panel of polymerases. Agents with activity against Pol II from multiple fungal enzymes but not against the human counterpart were evaluated in vitro against fungal pathogens.

[2] = system: C. albicans RNA polymerase II; assay: biochemical
Description: as §1, §2, §3, §4

[3] = system: C. albicans resistant to fluconazole; assay: Systemic candidiasis caused by fluconazole-resistant C. albicans; conditions: mouse, in vivo
Description: (§5) In addition, Compound 1 was efficacious in a murine model for systemic candidiasis (FIG. 10). It prolonged mean and median survival times of treated mice in the dosage range of 5 mg/kg/d to 100 mg/kg/d on aq.d., d2-11 schedule. […] The efficacy of Compound 1 was confirmed in a separate experiment using amphotericin as a control (FIG. 11). Compound 1 was also efficacious when administered orally to mice with an established systemic Candida infection (FIG. 12). […] Compound 1 is also effective against systemic candidiasis caused by a strain of C. albicans resistant to fluconazole (FIG. 13). Additional animal testing will include acute toxicity determination, route and schedule dependency in standard efficacy models, efficacy testing in immunosuppressed Candida infected mice, efficacy in an Aspergillus infection model, and pharmacokinetics following IV and oral dosing.
(§6) Compound 6 was evaluated for antifungal efficacy in a systemic candidiasis model in immunocompetent mice (FIG. 18). The compound was administered IP on a q.d., d2-11 schedule. […] 90% long term survival was seen formice treated with Compound 6 at 200/mg/kg. 30% of mice survived when treated with Compound 6 at 100 mg/kg/d. Compound 6 was also effective against systemic candidiasis when administered orally (FIG. 19) and it was effective in treating infections caused by fluconazole-resistant C. albicans.

[4] = system: systemic Candida infection; assay: Murine model for systemic candidiasis; type: in vivo, mouse
Description: as §5, §6

[5] = Compound-related toxicity in treated mice; type: in vivo, mouse; conditions: IP, q.d., d2-11, any of the treatment groups, immunocompetent mice
Description: as §5, §6

fungal pathogens = assay: In vitro antifungal activity (MIC); type: cell-based
C. albicans = assay: Time course of fungicidal activity, C. albicans; type: cell-based, Candida albicans; conditions: C. albicans cells
Excerpt: (§7) Compound 1 is rapidly fungicidal.

S. cerevisiae = assay: Time course of fungicidal activity, S. cerevisiae; type: cell-based, Saccharomyces cerevisiae; conditions: S. cerevisiae cells
Excerpt: as §7

[6] = Table 1, read-out: IC50 Human pol II
[7] = listed as stilbene isostere of Compound 1
[8] = Table 2, read-out: IC50 Human pol II
[9] = 1.5 μg/ml, similar time (45 minutes)

T1 sequence (A0A1D8PUA6 1-1728): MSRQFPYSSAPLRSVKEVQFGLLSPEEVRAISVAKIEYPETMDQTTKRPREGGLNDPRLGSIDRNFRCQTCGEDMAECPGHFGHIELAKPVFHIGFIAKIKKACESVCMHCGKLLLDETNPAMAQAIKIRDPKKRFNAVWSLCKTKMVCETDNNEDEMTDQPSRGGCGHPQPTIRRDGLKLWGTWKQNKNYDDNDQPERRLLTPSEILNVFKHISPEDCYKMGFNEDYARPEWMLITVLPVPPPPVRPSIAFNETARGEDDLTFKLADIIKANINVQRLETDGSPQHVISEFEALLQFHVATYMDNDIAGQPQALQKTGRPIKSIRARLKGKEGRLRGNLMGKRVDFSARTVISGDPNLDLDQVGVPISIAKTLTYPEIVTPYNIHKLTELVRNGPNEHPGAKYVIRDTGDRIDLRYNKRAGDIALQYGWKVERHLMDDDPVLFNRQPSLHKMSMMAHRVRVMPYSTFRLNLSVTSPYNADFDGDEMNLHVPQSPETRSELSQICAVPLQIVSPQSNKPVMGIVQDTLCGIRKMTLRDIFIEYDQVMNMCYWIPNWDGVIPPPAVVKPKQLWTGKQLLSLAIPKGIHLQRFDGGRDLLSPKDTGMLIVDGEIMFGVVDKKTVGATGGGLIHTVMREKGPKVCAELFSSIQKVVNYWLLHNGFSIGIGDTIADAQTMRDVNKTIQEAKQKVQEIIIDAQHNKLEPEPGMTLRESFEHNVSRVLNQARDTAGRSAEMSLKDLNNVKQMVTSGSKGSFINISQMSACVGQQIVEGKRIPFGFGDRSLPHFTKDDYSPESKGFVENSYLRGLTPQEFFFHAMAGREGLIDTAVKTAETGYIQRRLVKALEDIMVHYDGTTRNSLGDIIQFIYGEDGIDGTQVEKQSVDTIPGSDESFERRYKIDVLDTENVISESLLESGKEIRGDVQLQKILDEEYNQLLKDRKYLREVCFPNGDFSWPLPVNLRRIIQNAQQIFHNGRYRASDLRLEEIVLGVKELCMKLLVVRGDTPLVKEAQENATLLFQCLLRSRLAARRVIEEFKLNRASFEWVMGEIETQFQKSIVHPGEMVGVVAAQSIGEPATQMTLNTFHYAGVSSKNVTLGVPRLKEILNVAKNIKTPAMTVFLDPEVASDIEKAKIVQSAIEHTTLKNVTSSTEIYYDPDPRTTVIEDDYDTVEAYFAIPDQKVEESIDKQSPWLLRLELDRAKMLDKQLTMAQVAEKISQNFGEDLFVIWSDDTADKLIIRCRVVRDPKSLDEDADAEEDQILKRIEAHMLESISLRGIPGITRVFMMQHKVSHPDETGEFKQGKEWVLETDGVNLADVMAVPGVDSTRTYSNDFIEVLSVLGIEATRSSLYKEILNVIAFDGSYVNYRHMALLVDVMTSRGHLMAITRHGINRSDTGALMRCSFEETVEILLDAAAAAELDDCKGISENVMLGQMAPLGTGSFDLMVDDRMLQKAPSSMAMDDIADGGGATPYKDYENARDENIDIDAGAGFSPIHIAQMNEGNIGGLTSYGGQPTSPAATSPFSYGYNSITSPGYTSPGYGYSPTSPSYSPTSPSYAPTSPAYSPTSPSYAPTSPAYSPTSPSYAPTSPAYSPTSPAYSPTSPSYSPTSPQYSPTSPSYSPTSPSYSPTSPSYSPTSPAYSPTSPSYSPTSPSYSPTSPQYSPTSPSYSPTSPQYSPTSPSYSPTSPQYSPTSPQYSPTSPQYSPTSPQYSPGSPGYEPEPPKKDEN
T1 sequence (Q5A8Y5 1-1234): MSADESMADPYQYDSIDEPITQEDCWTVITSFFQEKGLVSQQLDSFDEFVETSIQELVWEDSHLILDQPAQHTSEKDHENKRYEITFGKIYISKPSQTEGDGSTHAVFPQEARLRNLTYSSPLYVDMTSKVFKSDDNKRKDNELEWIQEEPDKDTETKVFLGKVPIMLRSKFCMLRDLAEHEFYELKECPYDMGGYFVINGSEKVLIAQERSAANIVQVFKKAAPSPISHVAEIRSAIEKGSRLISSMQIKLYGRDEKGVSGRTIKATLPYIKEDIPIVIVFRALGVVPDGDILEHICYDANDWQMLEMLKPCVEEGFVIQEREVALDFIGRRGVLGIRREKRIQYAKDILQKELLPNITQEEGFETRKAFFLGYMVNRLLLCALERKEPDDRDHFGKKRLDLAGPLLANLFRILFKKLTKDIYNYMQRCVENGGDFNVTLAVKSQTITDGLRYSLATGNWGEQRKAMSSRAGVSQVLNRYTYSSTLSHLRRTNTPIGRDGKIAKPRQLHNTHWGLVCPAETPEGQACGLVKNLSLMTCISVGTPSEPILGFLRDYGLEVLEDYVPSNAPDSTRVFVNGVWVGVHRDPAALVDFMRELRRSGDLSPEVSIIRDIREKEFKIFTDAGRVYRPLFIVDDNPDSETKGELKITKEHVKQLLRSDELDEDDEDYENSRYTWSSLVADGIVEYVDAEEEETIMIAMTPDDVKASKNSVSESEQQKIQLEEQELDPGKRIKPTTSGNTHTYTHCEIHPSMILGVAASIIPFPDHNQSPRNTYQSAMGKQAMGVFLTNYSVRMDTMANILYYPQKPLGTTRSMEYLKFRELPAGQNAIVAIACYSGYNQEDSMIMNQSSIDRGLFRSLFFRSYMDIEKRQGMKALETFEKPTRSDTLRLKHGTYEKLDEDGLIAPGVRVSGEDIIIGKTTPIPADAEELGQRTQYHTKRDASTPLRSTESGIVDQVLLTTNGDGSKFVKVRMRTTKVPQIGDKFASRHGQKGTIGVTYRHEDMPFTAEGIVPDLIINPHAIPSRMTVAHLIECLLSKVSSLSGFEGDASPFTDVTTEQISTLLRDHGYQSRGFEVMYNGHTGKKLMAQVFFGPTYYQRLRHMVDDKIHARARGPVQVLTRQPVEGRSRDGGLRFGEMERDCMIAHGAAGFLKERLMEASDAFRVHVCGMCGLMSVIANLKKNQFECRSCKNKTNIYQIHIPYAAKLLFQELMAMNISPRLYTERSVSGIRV

Row | inhibition at 20 µM [1] [%] | Compound | IC50 ([1]; Table 2) [µM] | IC50 (human Pol II; [8]) [µM] | further results
1 | – | O=C(O)CN(CCN(CC(=O)O)CC(=O)O)CC(=O)O [EDTA, reference compound] | – | – | inhibition at 10 µM ([1]; 1 h, read-out: inhibition of transcription): ≥ 90%
2 | 37 | O=[N+]([O-])c1cc(O)ccc1N=Nc1cccc(C(F)(F)F)c1 [Compound 23, 4-[-2-[3-(trifluoromethyl]phenyl)diazenyl]-3-nitro-phenol] | – | – | –
3 | – | Oc1ccc(CCc2cccc(C(F)(F)F)c2)cc1 [CH2 CH2] | – | – | IC50 ([1]; Table 1): 230 µM; IC50 (human Pol II; [6]): > 2000 µM
4 | 37 | N#Cc1cc(N=Nc2cccc(C(F)(F)F)c2)ccc1O [Compound 18, 4-[-2-[3-(trifluoromethyl)phenyl]diazenyl]-2-cyano-phenol] | – | – | –
5 | 33 | OCc1cc(N=Nc2cccc(C(F)(F)F)c2)ccc1O [Compound 19, 4-[-2-[3-(tnfluoromethyl)phenyl]diazenyl]-2-(hydroxymethyl)-phenol] | – | – | –
6 | – | Oc1ccc(C=Cc2cccc(C(F)(F)F)c2)cc1 [Compound 6, 4-[-2-[3-(trifluoromethyl)phenyl]ethenyl]phenol] | – | – | IC50 ([1]; Table 1): 70 µM; selectivity for Candida/fungal Pol II relative to human Pol II [2]: selective; selectivity for Candida/fungal Pol II relative to human Pol II [2, 7]: retained selective activity; IC50 (human Pol II): 230 µM; efficacy against systemic candidiasis caused by fluconazole-resistant C. albicans [3]: effective; mice survived ([4]; IP q.d. d2-11, 100 mg/kg/d, immunocompetent mice): 30%; long term survival ([4]; IP q.d. d2-11, 200/mg/kg, immunocompetent mice): 90%; efficacy against systemic candidiasis when administered orally ([4]; oral): effective; compound-related toxicity [5]: no evidence of compound-related toxicity; in vitro antifungal activity / spectrum (fungal pathogens): broadly active against fungi; MIC (fungal pathogens; Table 1, antifungal activity, read-out: MIC): 8.2 µg/mL (≈ 31 µM); in vitro antifungal activity / spectrum (fungal pathogens; [7]): had antifungal activity
7 | – | 4-[-2-[3-(trifluoromethyl)phenyl]diazenyl]-2-hydroxy-phenol [Compound 4] | 70 | 230 | –
8 | 28 | Oc1ccc(N=Nc2cc(C(F)(F)F)cc(C(F)(F)F)c2)cc1 [Compound 16, 4-[-2-[3,5-(di-trifluoromethyl)phenyl]diazenyl]phenol] | – | – | –
9 | – | O=Cc1cc(/N=N/c2cccc(C(F)(F)F)c2)ccc1O [Compound 10, 5-[(E)-2-[3-(trifluoromethyl)phenyl]diazenyl]-2-hydroxy-benzaldehyde] | 34 | 82 | –
10 | – | COCOc1ccc(C=Cc2cccc(C(F)(F)F)c2)cc1 [Compound 25, 4-[-2-[3-(trifluorometbyl)phenyl]ethenyl]-methoxymethoxyl phenyl] | > 2000 | > 2000 | –
11 | 42 | Oc1ccc(N=Nc2ccc(F)c(C(F)(F)F)c2)cc1 [Compound 14] | – | – | –
12 | 50 | Oc1ccc(N=Nc2cccc(Cl)c2)cc1 [Compound 11, 4-[-2-[3-(chloro)phenyl]diazenyl]phenol] | – | – | –
13 | – | Cc1cccc(N=Nc2ccc(O)cc2)c1 [Compound 5, 4-[-2-[3-(methyl)phenyl]diazenyl]-phenol] | 90 | 340 | –
14 | 39 | Oc1ccc(N=Nc2cc(C(F)(F)F)ccc2F)cc1 [Compound 15, 4-[-2-[6-fluoro-3-(trifluoromethyl)phenyl]diazenyl]phenol] | – | – | –
15 | – | O=[N+]([O-])c1cc(N=Nc2cccc(C(F)(F)F)c2)ccc1O [Compound 8, 4-[-2-[3-(trifluoromethyl)phenyl]diazenyl]-2-nitrophenol] | 103 | > 2000 | –
16 | – | OC(Cn1cncn1)(Cn1cncn1)c1ccc(F)cc1F [fluconazole, reference compound] | – | – | recoverable colonies from the kidneys of treated animals ([4]; systemic candidiasis, mice): reduced

Row | inhibition at 20 µM [1] [%] | Compound | IC50 ([1]; Table 2) [µM] | IC50 (human Pol II; [8]) [µM] | further results
17 | 39 | OCc1cc(O)ccc1N=Nc1cccc(C(F)(F)F)c1 [Compound 21, 4-[-2-[3-(trifluoromethyl)phenyl]diazenyl]-3-(hydroxymethyl)-phenol] | – | – | –
18 | 42 | Cc1cc(O)ccc1N=Nc1cccc(C(F)(F)F)c1 [Compound 22, 4[-2-[3-(trifluoromethyl)phenyl]diazenyl]-3-methyl-phenol] | – | – | –
19 | 45 | O=[N+]([O-])c1cccc(N=Nc2ccc(O)cc2)c1 [Compound 12, 4-[-2-[3-(nitro)phenyl]diazenyl]phenol] | – | – | –
20 | 38 | Oc1ccc(N=Nc2cccc(C(F)(F)F)c2F)cc1 [Compound 13, 4-[-2-[2-fluoro-3-(trifluoromethyl)phenyl]diazenyl]phenol] | – | – | –
21 | – | C[C@@H]1[C@H](O)[C@@H](C)/C=C/C=C/C=C/C=C/C=C/C=C/C=C/[C@H](O[C@@H]2O[C@H](C)[C@@H](O)[C@H](N)[C@@H]2O)C[C@@H]2O[C@](O)(C[C@@H](O)C[C@@H](O)[C@H](O)CC[C@@H](O)C[C@@H](O)CC(=O)O[C@H]1C)C[C@H](O)[C@H]2C(=O)O [amphotericin B, reference compound] | – | – | exposure time after which no CFUs are recoverable (C. albicans): ~30 min; colony forming units after exposure (C. albicans; [9]): no colony forming units are detected; exposure time after which no CFUs are recoverable (S. cerevisiae): ~30 min; colony forming units after exposure (S. cerevisiae; [9]): no colony forming units are detected
22 | – | O=[N+]([O-])c1cc(C(F)(F)F)ccc1N=Nc1ccc(O)cc1 [Compound 7] | 190 | 300 | –
23 | 53 | COc1cc(N=Nc2ccc(O)cc2)cc(C(F)(F)F)c1 [Compound 17] | – | – | –
24 | – | COc1ccc(N=Nc2cccc(C(F)(F)F)c2)cc1 [Compound 3, 4-[-2-[3-(trifluoromethyl)phenyl]diazenyl]-anisole] | > 2000 | > 2000 | –
25 | – | Oc1ccc(C=Cc2cccc(C(F)(F)F)c2)cc1Br [Compound 26, 4-[-2-[3-(trifluoromethyl)phenyl]ethenyl]-2-bromo-phenol] | 42 | 84 | –
26 | – | O=C(Nc1cccc(C(F)(F)F)c1)c1ccc(OCc2ccccc2)cc1 [Compound 29, 4-benzoxy-N-[3-(trifluoromethyl)phenyl]benzamide] | > 2000 | > 2000 | –
27 | 28 | N#Cc1cc(O)ccc1N=Nc1cccc(C(F)(F)F)c1 [Compound 20, 4-[-2-[3-(trifluoromethyl)phenyl]diazenyl]-3-cyano-phenol] | – | – | –
28 | – | O=C(Nc1cccc(C(F)(F)F)c1)c1ccc(O)cc1 [Compound 30, 4-hydroxy-N-[3-(trifnuoromethyl)phenyl]benzamide] | – | – | IC50 ([1]; Table 1): 27 µM; IC50 (human Pol II; [6]): 82 µM
29 | – | OB(O)c1cc(C=Cc2cccc(C(F)(F)F)c2)ccc1O [Compound 27] | 58 | 136 | –
30 | – | COc1ccc(C=Cc2cccc(C(F)(F)F)c2)cc1 [Compound 24, 4-[-2-[3-(trifluoromethyl)-phenyl]ethenyl]-anisole] | > 2000 | > 2000 | –
31 | – | O=C(Nc1ccc(O)cc1)c1cccc(C(F)(F)F)c1 [CONH] | – | – | IC50 ([1]; Table 1): 51 µM; IC50 (human Pol II; [6]): 500 µM
32 | – | O=C(O)c1cc(N=Nc2cccc(C(F)(F)F)c2)ccc1O [Compound 9, 5-[-2-[3-(trifluoromethyl)phenyl]diazenyl]-2-hydroxy-benzoic acid] | 193 | 148 | –

Source: patent US6165998A, “Antifungal agents” (Scriptgen Pharmaceuticals, Inc., priority 1998, dated 2000)
